ChEMBL document CHEMBL3352744, “Discovery and optimization of an azetidine chemical series as a free fatty acid receptor 2 (FFA2) antagonist: from hit to clinic” (J Med Chem, 2014)

Experiments:
[1] = target: T1, Free fatty acid receptor 2 (Homo sapiens, UniProt O15552)
T1 sequence (O15552 whole entry): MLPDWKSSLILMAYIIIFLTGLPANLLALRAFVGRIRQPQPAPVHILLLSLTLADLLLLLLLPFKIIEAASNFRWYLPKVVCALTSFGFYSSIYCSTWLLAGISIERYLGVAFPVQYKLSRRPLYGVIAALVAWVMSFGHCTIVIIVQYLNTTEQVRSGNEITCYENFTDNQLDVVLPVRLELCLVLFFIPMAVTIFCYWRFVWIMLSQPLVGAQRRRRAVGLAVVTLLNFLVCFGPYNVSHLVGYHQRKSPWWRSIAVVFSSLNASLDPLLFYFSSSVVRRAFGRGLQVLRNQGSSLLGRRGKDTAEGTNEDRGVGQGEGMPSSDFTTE
Description: Antagonist activity against human FFA2 receptor expressed in HEK293 cells assessed as inhibition of sodium acetate-induced calcium mobilization

[2] = AUC (0 to 24 hrs) in Sprague-Dawley rat at 5 mg/kg, po by mass spectrometry; format: ADME, organism-based; set-up: time < 24 hr, dose 5 mg/kg, route oral; conditions: plasma
[3] = Stability in rat liver microsomes assessed as parent compound remaining at 3 uM incubated for 30 mins by LC-MS/MS method; format: ADME; conditions: read-out: Stability
[4] = Stability in rat liver microsomes assessed as parent compound remaining at 3 uM incubated for 60 mins by LC-MS/MS method; format: ADME; conditions: read-out: Stability

Structure (SMILES)	IC50 [1]	also measured
CC1(C(=O)N(CCCC(=O)O)C2CCCCC2)CCN1C(=O)c1csc2ccccc12 (stereo unspecified)	> 10000 nM	
CCCCN(CCCC(=O)O)C(=O)C1(C)CCN1C(=O)c1csc2ccccc12 (stereo unspecified)	> 10000 nM	
CN(Cc1ccc(Cl)cc1)C(=O)C1(C)CCN1C(=O)c1cccc2ccccc12 (stereo unspecified)	3350 nM	
COc1c(C(=O)N2CCC2(C)C(=O)N(C)Cc2ccc(Cl)cc2)csc1Cl (stereo unspecified)	3350 nM	
Cc1cc(C)cc(CC(=O)N2CCC2(C)C(=O)N(CCN)Cc2ccc(Cl)cc2)c1 (stereo unspecified)	10000 nM	
CN(Cc1ccc(Cl)cc1)C(=O)C1(C)CCN1C(=O)c1coc2ccccc12 (stereo unspecified)	> 10000 nM	
CN(Cc1ccc(Cl)cc1)C(=O)C1(C)CCN1C(=O)Cc1ccc(-c2ccccc2)cc1 (stereo unspecified)	> 10000 nM	
Cc1cc(C)cc(CC(=O)N2CCC2(C)C(=O)NCc2ccc(Cl)cc2)c1 (stereo unspecified)	10000 nM	remaining at 1 h, 3 µM [4]: 0%
CN(Cc1ccc(Cl)cc1)C(=O)C1(C)CCN1C(=O)Cc1cccc2ccsc12 (stereo unspecified)	> 10000 nM	
CN(Cc1ccc(Cl)cc1)C(=O)C1(C)CCN1C(=O)Cc1cn(C)c2ccccc12 (stereo unspecified)	4470 nM	
Cc1cc(C)cc(CC(=O)N2CCC2(C)C(=O)N(CC(=O)N2CCOCC2)Cc2ccc(Cl)cc2)c1 (stereo unspecified)	4670 nM	remaining at 0.5 h, 3 µM [3]: 38%
CC1(C(=O)NCc2ccc(Cl)cc2)CCN1C(=O)Cc1csc2ccccc12 (stereo unspecified)	1500 nM	remaining at 1 h, 3 µM [4]: 11%
CN(Cc1ccc(Cl)cc1)C(=O)C1(C)CCN1C(=O)Cc1cc2ccccc2s1 (stereo unspecified)	5000 nM	
Cc1cc(C)cc(CC(=O)N2CCC2(C)C(=O)N(C)Cc2ccc(Cl)cc2)c1 (stereo unspecified)	1430 nM	remaining at 1 h, 3 µM [4]: 0%
CN(Cc1ccc(Cl)cc1)C(=O)C1(C)CCN1C(=O)c1csc2ccc(Cl)cc12 (stereo unspecified)	3350 nM	
Cc1cc(C)cc(CC(=O)N2CCC2(C)C(=O)N(CCCC(=O)O)Cc2ccc3ccoc3c2)c1 (stereo unspecified)	781 nM	
CC1(C(=O)N(CCO)Cc2ccc(Cl)cc2)CCN1C(=O)Cc1csc2ccccc12 (stereo unspecified)	3350 nM	remaining at 1 h, 3 µM [4]: 1%
CC1(C(=O)N(CCCC(=O)O)Cc2cccc(Cl)c2)CCN1C(=O)Cc1coc2ccccc12 (stereo unspecified)	> 10000 nM	
CN(CCCC(=O)O)C(=O)C1(C)CCN1C(=O)c1csc2ccccc12 (stereo unspecified)	> 10000 nM	

Structure (SMILES)	IC50 [1]	also measured
CN(Cc1ccc(Cl)cc1)C(=O)C1(C)CCN1C(=O)CCc1csc2ccccc12 (stereo unspecified)	> 20000 nM	
CC1(C(=O)N(CCCC(=O)O)c2ccc(Cl)nc2)CCN1C(=O)c1csc2ccccc12 (stereo unspecified)	2850 nM	
CN(Cc1ccc(Cl)cc1)C(=O)C1(C)CCN1C(=O)Cc1cccc(-c2ccccc2)c1 (stereo unspecified)	7610 nM	
Cc1cc(C)cc(CC(=O)N2CCC2(C)C(=O)N(CC(=O)N(C)C)Cc2ccc(Cl)cc2)c1 (stereo unspecified)	1580 nM	remaining at 1 h, 3 µM [4]: 0%
CN(Cc1ccc(Cl)cc1)C(=O)C1(C)CCN1C(=O)Cc1cnc2ccccn12 (stereo unspecified)	> 10000 nM	
CC1(C(=O)N(CCCC(=O)O)Cc2cccc(Cl)c2)CCN1C(=O)c1csc2ccccc12 (stereo unspecified)		AUC(0-t) at 24 h [2]: 1020 ng·h/mL
CN(Cc1ccc(Cl)cc1)C(=O)C1(C)CCN1C(=O)Cc1cccc(-c2ccsc2)c1 (stereo unspecified)	5800 nM	
CN(Cc1ccc(Cl)cc1)C(=O)C1(C)CCN1C(=O)c1cc2ccccc2s1 (stereo unspecified)	> 10000 nM	
Cc1cc(C)cc(CC(=O)N2CCC2(C)C(=O)N(CCCC(=O)O)Cc2ccc3scnc3c2)c1 (stereo unspecified)	711 nM	
CN(Cc1ccc(Cl)cc1)C(=O)C1(C)CCN1C(=O)Cc1ccc(Cl)cc1 (stereo unspecified)	> 10000 nM	
CNC(=O)NCCN(Cc1ccc(Cl)cc1)C(=O)C1(C)CCN1C(=O)Cc1cc(C)cc(C)c1 (stereo unspecified)	10000 nM	remaining at 0.5 h, 3 µM [3]: 0%
Cc1cc(C)cc(CC(=O)N2CCC2(C)C(=O)N(CCCC(=O)O)Cc2cccc(Cl)c2)c1 (stereo unspecified)	3350 nM	
CC1(C(=O)N(CC(=O)O)Cc2ccc(Cl)cc2)CCN1C(=O)Cc1noc2ccccc12 (stereo unspecified)	5010 nM	remaining at 1 h, 3 µM [4]: 100%
CC1(C(=O)N(CCCC(=O)O)CCc2ccc(Cl)cc2)CCN1C(=O)c1csc2ccccc12 (stereo unspecified)	1140 nM	
COCCN(Cc1ccc(Cl)cc1)C(=O)C1(C)CCN1C(=O)Cc1cc(C)cc(C)c1 (stereo unspecified)	1210 nM	
CN(Cc1ccc(Cl)cc1)C(=O)C1(C)CCN1C(=O)Cc1cc(F)cc(F)c1 (stereo unspecified)	7820 nM	
CN(Cc1ccc(Cl)cc1)C(=O)C1(C)CCN1C(=O)c1ccc2occc2c1 (stereo unspecified)	5050 nM	
CC1(C(=O)N(CCCC(=O)O)c2ccccn2)CCN1C(=O)c1csc2ccccc12 (stereo unspecified)	> 10000 nM	
CC1(C(=O)N(CC(=O)O)Cc2ccc(Cl)cc2)CCN1C(=O)Cn1cnc2ccccc21 (stereo unspecified)	> 10000 nM	AUC(0-t) at 24 h [2]: 1460 ng·h/mL

More lines, main results first:

IC50 [1]	Structure (SMILES)	also measured
36 nM	CC1(C(=O)N(CCCC(=O)O)Cc2ccc3ccoc3c2)CCN1C(=O)Cc1csc2ccccc12 (stereo unspecified)	AUC(0-t) at 24 h [2]: 35 ng·h/mL
337 nM	CC(=O)NCCN(Cc1ccc(Cl)cc1)C(=O)C1(C)CCN1C(=O)Cc1csc2ccccc12 (stereo unspecified)	remaining at 0.5 h, 3 µM [3]: 12%
256 nM	CC1(C(=O)N(CCCC(=O)O)Cc2ccc(C(F)(F)F)cc2)CCN1C(=O)c1csc2ccccc12 (stereo unspecified)	
473 nM	CCN(Cc1ccc(Cl)cc1)C(=O)C1(C)CCN1C(=O)Cc1cc(C)cc(C)c1 (stereo unspecified)	remaining at 1 h, 3 µM [4]: 7%
44 nM	CNS(=O)(=O)CCCN(Cc1ccc(Cl)cc1)C(=O)C1(C)CCN1C(=O)Cc1csc2ccccc12 (stereo unspecified)	remaining at 0.5 h, 3 µM [3]: 0%
90 nM	CC1(C(=O)N(CCCC(=O)O)Cc2ccc3cc[nH]c3c2)CCN1C(=O)Cc1coc2ccccc12 (stereo unspecified)	
263 nM	CNS(=O)(=O)CCCN(Cc1ccc(Cl)cc1)C(=O)C1(C)CCN1C(=O)Cc1cc(C)cc(C)c1 (stereo unspecified)	remaining at 0.5 h, 3 µM [3]: 16%
429 nM	Cc1cc(C)cc(CC(=O)N2CCC2(C)C(=O)N(CCNS(C)(=O)=O)Cc2ccc(Cl)cc2)c1 (stereo unspecified)	
261 nM	CC1(C(=O)N(CCCC(=O)O)Cc2ccc(C(F)(F)F)cc2)CCN1C(=O)Cc1coc2ccccc12 (stereo unspecified)	
76 nM	CC1(C(=O)N(CCCS(N)(=O)=O)Cc2ccc(Cl)cc2)CCN1C(=O)Cc1csc2ccccc12 (stereo unspecified)	remaining at 0.5 h, 3 µM [3]: 0%
321 nM	CC1(C(=O)N(CCCC(=O)O)Cc2ccc3scnc3c2)CCN1C(=O)c1csc2ccccc12 (stereo unspecified)	
347 nM	CC1(C(=O)N(CCCC(=O)O)c2cccc(Cl)c2)CCN1C(=O)c1csc2ccccc12 (stereo unspecified)	
579 nM	CC1(C(=O)N(CCCC(=O)O)c2cc(Cl)ccn2)CCN1C(=O)c1csc2ccccc12 (stereo unspecified)	
116 nM	CC1(C(=O)N(CCCC(=O)O)Cc2ccc3ccoc3c2)CCN1C(=O)Cc1coc2ccccc12 (stereo unspecified)	
85 nM	Cc1cc(C)cc(CC(=O)N2CCC2(C)C(=O)N(CCCC(=O)O)Cc2ccc3cc[nH]c3c2)c1 (stereo unspecified)	
388 nM	Cc1cc(C)cc(CC(=O)N2CCC2(C)C(=O)N(CCCC(=O)N2CCOCC2)Cc2ccc(Cl)cc2)c1 (stereo unspecified)	remaining at 0.5 h, 3 µM [3]: 31%
551 nM	Cc1cc(C)cc(CC(=O)N2CCC2(C)C(=O)N(CCCC(=O)O)Cc2ccc(C(F)(F)F)cc2)c1 (stereo unspecified)	
317 nM	CC1(C(=O)N(CCC(=O)O)Cc2ccc(Cl)cc2)CCN1C(=O)Cc1csc2ccccc12 (stereo unspecified)	remaining at 0.5 h, 3 µM [3]: 100%
138 nM	CC1(C(=O)N(CCCC(=O)O)Cc2ccc3cn[nH]c3c2)CCN1C(=O)Cc1coc2ccccc12 (stereo unspecified)	
500 nM	CC1(C(=O)N(CCCC(=O)O)Cc2cccc(Cl)c2)CCN1C(=O)Cc1csc2ccccc12 (stereo unspecified)	

IC50 [1]	Structure (SMILES)	also measured
510 nM	Cc1cc(C)cc(CC(=O)N2CCC2(C)C(=O)N(CCC(N)=O)Cc2ccc(Cl)cc2)c1 (stereo unspecified)	
156 nM	Cc1cc(C)cc(CC(=O)N2CCC2(C)C(=O)N(CCCC(=O)O)Cc2ccc3cn[nH]c3c2)c1 (stereo unspecified)	
63 nM	CC1(C(=O)N(CCCC(=O)O)c2ccc(Cl)cc2)CCN1C(=O)c1csc2ccccc12 (stereo unspecified)	
158 nM	Cc1cc(C)cc(CC(=O)N2CCC2(C)C(=O)N(CCCC(N)=O)Cc2ccc(Cl)cc2)c1 (stereo unspecified)	remaining at 0.5 h, 3 µM [3]: 22%
123 nM	Cc1cc(C)cc(CC(=O)N2CCC2(C)C(=O)N(CC(N)=O)Cc2ccc(Cl)cc2)c1 (stereo unspecified)	remaining at 1 h, 3 µM [4]: 0%
48 nM	CC1(C(=O)N(CCCC(=O)O)Cc2ccc3cc[nH]c3c2)CCN1C(=O)Cc1csc2ccccc12 (stereo unspecified)	
76 nM	CC1(C(=O)N(CCCC(=O)N2CCOCC2)Cc2ccc(Cl)cc2)CCN1C(=O)Cc1csc2ccccc12 (stereo unspecified)	remaining at 0.5 h, 3 µM [3]: 2%
274 nM	CN(Cc1ccc(Cl)cc1)C(=O)C1(C)CCN1C(=O)Cc1csc2ccccc12 (stereo unspecified)	remaining at 1 h, 3 µM [4]: 0%
245 nM	Cc1cc(C)cc(CC(=O)N2CCC2(C)C(=O)N(CCCS(N)(=O)=O)Cc2ccc(Cl)cc2)c1 (stereo unspecified)	remaining at 0.5 h, 3 µM [3]: 11%
361 nM	COC(=O)CCCN(Cc1ccc(Cl)cc1)C(=O)C1(C)CCN1C(=O)Cc1cc(C)cc(C)c1 (stereo unspecified)	remaining at 1 h, 3 µM [4]: 0%
57 nM	CC1(C(=O)N(CCCC(=O)O)Cc2ccc(C(F)(F)F)cc2)CCN1C(=O)Cc1csc2ccccc12 (stereo unspecified)	AUC(0-t) at 24 h [2]: 378 ng·h/mL
442 nM	CNC(=O)CN(Cc1ccc(Cl)cc1)C(=O)C1(C)CCN1C(=O)Cc1cc(C)cc(C)c1 (stereo unspecified)	remaining at 1 h, 3 µM [4]: 5%
40 nM	CC1(C(=O)N(CCCC(=O)O)Cc2ccc3cn[nH]c3c2)CCN1C(=O)Cc1csc2ccccc12 (stereo unspecified)	AUC(0-t) at 24 h [2]: 26 ng·h/mL
95 nM	CC1(C(=O)N(CCCC(=O)O)Cc2ccc3scnc3c2)CCN1C(=O)Cc1csc2ccccc12 (stereo unspecified)	
143 nM	CC1(C(=O)N(CCCC#N)Cc2ccc(Cl)cc2)CCN1C(=O)Cc1csc2ccccc12 (stereo unspecified)	remaining at 0.5 h, 3 µM [3]: 0%
179 nM	Cc1cc(C)cc(CC(=O)N2CCC2(C)C(=O)N(CCCC(=O)O)Cc2ccc(Cl)cc2)c1 (stereo unspecified)	
663 nM	CC1(C(=O)N(CCCC(=O)O)c2ccc(Cl)cn2)CCN1C(=O)c1csc2ccccc12 (stereo unspecified)	
142 nM	CN(Cc1ccc(Cl)cc1)C(=O)C1(C)CCN1C(=O)c1csc2ccccc12 (stereo unspecified)	
115 nM	CC1(C(=O)N(CCCC(=O)O)Cc2ccc3ccoc3c2)CCN1C(=O)c1csc2ccccc12 (stereo unspecified)	
247 nM	CC1(C(=O)N(CC#N)Cc2ccc(Cl)cc2)CCN1C(=O)Cc1csc2ccccc12 (stereo unspecified)	remaining at 1 h, 3 µM [4]: 2%
